Laboratory results reported in ChEMBL document CHEMBL3045499, “Chem-bioinformatics and in vitro approaches for candidate optimization: a case study of NSC745689 as a promising antitumor agent” (Med Chem Res, 2013).
Active and inactive are the calls of the source. No cut-off for these calls is given here.

Columns and labels:
NCI-H322M = assay: Growth inhibition of Homo sapiens (human) NCI-H322M cells after 48 hr by SRB assay; assay type: functional
K562 = assay: Growth inhibition of Homo sapiens (human) K562 cells after 48 hr by SRB assay; assay type: functional; settings: K562, 48 h
SF-295 = assay: Growth inhibition of Homo sapiens (human) SF295 cells after 48 hr by SRB assay; assay type: functional; settings: SF-295, 48 h
HOP-62 = assay: Growth inhibition of Homo sapiens (human) HOP62 cells after 48 hr by SRB assay; assay type: functional; settings: HOP-62, 48 h
MDA-MB-435 = assay: Growth inhibition of Homo sapiens (human) MDA-MB-435 cells after 48 hr by SRB assay; assay type: functional; settings: MDA-MB-435, 48 h
HL-60(TB) = assay: Growth inhibition of Homo sapiens (human) HL-60(TB) cells after 48 hr by SRB assay; assay type: functional; settings: HL-60, 48 h
MDA-MB-468 = assay: Growth inhibition of Homo sapiens (human) MDA-MB-468 cells after 48 hr by SRB assay; assay type: functional; settings: MDA-MB-468, 48 h
U-251 = assay: Growth inhibition of Homo sapiens (human) U251 cells after 48 hr by SRB assay; assay type: functional; settings: U-251, 48 h
HOP-92 [1] = assay: Growth inhibition of Homo sapiens (human) HOP92 cells after 48 hr by SRB assay; assay type: functional; settings: HOP-92, 48 h
T47D = assay: Growth inhibition of Homo sapiens (human) T47D cells after 48 hr by SRB assay; assay type: functional
NCI/ADR-RES = assay: Growth inhibition of Homo sapiens (human) NCI/ADR-RES cells after 48 hr by SRB assay; assay type: functional
NCI-H460 = assay: Growth inhibition of Homo sapiens (human) NCI-H460 cells after 48 hr by SRB assay; assay type: functional; settings: NCI-H460, 48 h
SF-268 = assay: Growth inhibition of Homo sapiens (human) SF268 cells after 48 hr by SRB assay; assay type: functional; settings: SF-268, 48 h
MOLT-4 = assay: Growth inhibition of Homo sapiens (human) MOLT4 cells after 48 hr by SRB assay; assay type: functional; settings: MOLT-4, 48 h
EKVX = assay: Growth inhibition of Homo sapiens (human) EKVX cells after 48 hr by SRB assay; assay type: functional
SNB-75 [2] = assay: Growth inhibition of Homo sapiens (human) SNB75 cells after 48 hr by SRB assay; assay type: functional; settings: SNB-75, 48 h
SF-539 = assay: Growth inhibition of Homo sapiens (human) SF539 cells after 48 hr by SRB assay; assay type: functional; settings: SF-539, 48 h
NCI-H226 = assay: Growth inhibition of Homo sapiens (human) NCI-H226 cells after 48 hr by SRB assay; assay type: functional; settings: NCI-H226, 48 h
BT-549 = assay: Growth inhibition of Homo sapiens (human) BT549 cells after 48 hr by SRB assay; assay type: functional; settings: BT-549, 48 h
NCI-H23 = assay: Growth inhibition of Homo sapiens (human) NCI-H23 cells after 48 hr by SRB assay; assay type: functional; settings: NCI-H23, 48 h
MCF7 = assay: Growth inhibition of Homo sapiens (human) MCF7 cells after 48 hr by SRB assay; assay type: functional; settings: MCF7, 48 h
MDA-MB-231 = assay: Growth inhibition of Homo sapiens (human) MDA-MB-231/ATCC cells after 48 hr by SRB assay; assay type: functional; settings: MDA-MB-231, 48 h
Hs-578T = assay: Growth inhibition of Homo sapiens (human) Hs 578T cells after 48 hr by SRB assay; assay type: functional
SNB-19 = assay: Growth inhibition of Homo sapiens (human) SNB19 cells after 48 hr by SRB assay; assay type: functional; settings: SNB-19, 48 h
SR = assay: Growth inhibition of Homo sapiens (human) SR cells after 48 hr by SRB assay; assay type: functional
CCRF-CEM = assay: Growth inhibition of Homo sapiens (human) CCRF-CEM cells after 48 hr by SRB assay; assay type: functional
RPMI-8226 = assay: Growth inhibition of Homo sapiens (human) RPMI8226 cells after 48 hr by SRB assay; assay type: functional; settings: RPMI-8226, 48 h
A549 = assay: Growth inhibition of Homo sapiens (human) A549/ATCC cells after 48 hr by SRB assay; assay type: functional; settings: A549, 48 h
HOP-92 [3] = assay: Growth inhibition of Homo sapiens (human) HOP92 cells at 1 uM after 48 hr by SRB assay; assay type: functional, cell-based
Cytochrome P450 1A1 = Cytochrome P450 1A1 (Homo sapiens, UniProt P04798); assay: Inhibition of recombinant CYP1A1 (unknown origin) using 7-ethoxyresorufin as substrate by EROD assay
SNB-75 [4] = assay: Growth inhibition of Homo sapiens (human) SNB75 cells at 1 uM after 48 hr by SRB assay; assay type: functional, cell-based
NCI-H522 = assay: Growth inhibition of Homo sapiens (human) NCI-H522 cells after 48 hr by SRB assay; assay type: functional; settings: NCI-H522, 48 h

Sequence of Cytochrome P450 1A1 (P04798 whole entry): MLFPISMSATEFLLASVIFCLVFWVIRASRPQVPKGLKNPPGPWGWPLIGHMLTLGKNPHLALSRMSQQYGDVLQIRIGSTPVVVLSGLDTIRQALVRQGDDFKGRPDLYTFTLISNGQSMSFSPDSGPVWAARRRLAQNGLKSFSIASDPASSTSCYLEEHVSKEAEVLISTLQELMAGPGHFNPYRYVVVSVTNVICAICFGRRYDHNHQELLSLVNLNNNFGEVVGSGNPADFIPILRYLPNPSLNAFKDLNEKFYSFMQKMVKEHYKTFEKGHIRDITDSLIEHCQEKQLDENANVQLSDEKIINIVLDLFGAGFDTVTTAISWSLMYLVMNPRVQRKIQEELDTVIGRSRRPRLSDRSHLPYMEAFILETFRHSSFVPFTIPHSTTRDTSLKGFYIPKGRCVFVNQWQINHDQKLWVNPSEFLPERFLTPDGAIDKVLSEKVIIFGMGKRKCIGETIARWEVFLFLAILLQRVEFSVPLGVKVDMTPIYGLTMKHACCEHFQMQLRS

With `N#Cc1c(Nc2ccc(Cl)cc2)nc2sc3cc(Cl)ccc3n2c1=N` the GI50 (NCI-H322M) was 28.2 µM, the GI50 (K562) was > 100 µM and the GI50 (SF-295) was 3.02 µM. The GI50 (HOP-62) was 0.00457 µM, the GI50 (MDA-MB-435) was 6.17 µM and the GI50 (HL-60(TB)) was > 100 µM. The GI50 (MDA-MB-468) was 3.63 µM, the GI50 (U-251) was 6.61 µM and the GI50 (HOP-92 [1]; read-out: GI50) was 1.82 µM. For the same molecule, the GI50 (HOP-92 [1]; read-out: pGI50 (converted)) was > 100 µM, the GI50 (T47D) was > 100 µM and the GI50 (NCI/ADR-RES) was 4.68 µM. The GI50 (NCI-H460) was 21.9 µM, the GI50 (SF-268) was 4.07 µM and the GI50 (MOLT-4) was 2.51 µM. It also gave a GI50 (EKVX) of 10.2 µM, a GI50 (SNB-75 [2]; read-out: pGI50 (converted)) of 5.01 µM and a GI50 (SF-539) of 8.71 µM. The GI50 (NCI-H226) was 2.4 µM, the GI50 (BT-549) was 24.5 µM and the GI50 (NCI-H23) was 0.646 µM. The GI50 (MCF7) was 1.82 µM, the GI50 (MDA-MB-231) was 7.24 µM and the GI50 (Hs-578T; read-out: pGI50 (converted)) was 1.45 µM. The GI50 (SNB-19) was > 100 µM and the GI50 (SR) was 2.29 µM.
For `CSc1nc2sc3cc(Cl)ccc3n2c(=N)c1C#N`, the GI50 (CCRF-CEM) was 3.55 µM, the GI50 (NCI-H322M) was > 100 µM and the GI50 (K562) was 27.5 µM. The GI50 (SF-295) was 2.19 µM, the GI50 (HOP-62) was 38 µM and the GI50 (MDA-MB-435) was > 100 µM. For the same molecule, the GI50 (HL-60(TB)) was 1.35 µM, the GI50 (U-251) was 30.2 µM and the GI50 (HOP-92 [1]; read-out: GI50) was 0.219 µM. The GI50 (HOP-92 [1]; read-out: pGI50 (converted)) was 0.01 µM, the GI50 (T47D) was 28.2 µM and the GI50 (NCI/ADR-RES) was 17.8 µM. For the same molecule, the GI50 (NCI-H460) was 63.1 µM, the GI50 (RPMI-8226) was 64.6 µM and the GI50 (SF-268) was 21.4 µM. The GI50 (MOLT-4) was 2.51 µM, the GI50 (A549) was 5.89 µM and the “growth inhibition (GI)” value (HOP-92 [3]) was “Active”. The GI50 (EKVX) was 9.77 µM, the GI50 (SNB-75 [2]; read-out: GI50) was 0.416 µM and the GI50 (SNB-75 [2]; read-out: pGI50 (converted)) was 12.3 µM. It also gave a GI50 (SF-539) of 26.9 µM, a GI50 (NCI-H226) of 38 µM and a GI50 (BT-549) of 23.4 µM. The GI50 (NCI-H23) was 26.9 µM, the GI50 (MCF7) was 3.89 µM and the GI50 (MDA-MB-231) was 74.1 µM. It also gave an IC50 (Cytochrome P450 1A1) of 2.5 µM, a GI50 (Hs-578T; read-out: GI50) of 1.71 µM and a GI50 (Hs-578T; read-out: pGI50 (converted)) of 4.9 µM. The “growth inhibition (GI)” value (SNB-75 [4]) was “Active”, the GI50 (SNB-19) was 40.7 µM and the GI50 (SR) was 9.77 µM. The GI50 (NCI-H522) was 60.3 µM.
In the case of `COc1ccc(Nc2nc3sc4cc(Cl)ccc4n3c(=N)c2C#N)cc1`, the GI50 (CCRF-CEM) is reported as 17.4 µM, the GI50 (NCI-H322M) is reported as 3.31 µM and the GI50 (K562) is reported as 57.5 µM. The GI50 (SF-295) was 1.7 µM, the GI50 (HOP-62) was 3.39 µM and the GI50 (MDA-MB-435) was 3.09 µM. It also gave a GI50 (HL-60(TB)) of 34.7 µM, a GI50 (MDA-MB-468) of 3.55 µM and a GI50 (U-251) of 4.07 µM. For the same molecule, the GI50 (HOP-92 [1]; read-out: pGI50 (converted)) was 20.9 µM, the GI50 (T47D) was 29.5 µM and the GI50 (NCI/ADR-RES) was 2.82 µM. For the same molecule, the GI50 (NCI-H460) was 26.3 µM, the GI50 (RPMI-8226) was 17 µM and the GI50 (SF-268) was 4.37 µM. The GI50 (MOLT-4) was 13.2 µM, the GI50 (A549) was 50.1 µM and the GI50 (EKVX) was 1.91 µM. The GI50 (SNB-75 [2]; read-out: pGI50 (converted)) was 3.39 µM, the GI50 (SF-539) was 30.9 µM and the GI50 (NCI-H226) was 1.91 µM. It also gave a GI50 (BT-549) of 4.07 µM, a GI50 (NCI-H23) of 1.55 µM and a GI50 (MCF7) of 2.51 µM. For the same molecule, the GI50 (MDA-MB-231) was 2.04 µM, the GI50 (Hs-578T; read-out: GI50) was 0.406 µM and the GI50 (Hs-578T; read-out: pGI50 (converted)) was 0.407 µM. The GI50 (SNB-19) was 40.7 µM, the GI50 (SR) was 19.1 µM and the GI50 (NCI-H522) was 33.1 µM.
